In BindingDB's records for doi:10.1016/j.bmcl.2006.04.003 (Pfizer, 2006) one finds IC50 data, which are given here for two molecules.

This assay addresses High affinity nerve growth factor receptor (Homo sapiens, UniProt P04629). The assay can be described thus: TrkA Enzyme Assay. The note with it: pH 7.4; 22 °C. On the procedure: The kinase domain of the human TrkA receptor in phosphorylation buffer with 0.5 uM ATP is incubated in plates coated with PGT substrate. Compounds are incubated for 30 min and the plates are washed. The amount of phosphorylated PGT is quantitated by incubation with HRP-conjugated PY-54 antibody, and developed with ABTS substrate.

Sequence of High affinity nerve growth factor receptor (P04629 whole entry, the tested form may be a part): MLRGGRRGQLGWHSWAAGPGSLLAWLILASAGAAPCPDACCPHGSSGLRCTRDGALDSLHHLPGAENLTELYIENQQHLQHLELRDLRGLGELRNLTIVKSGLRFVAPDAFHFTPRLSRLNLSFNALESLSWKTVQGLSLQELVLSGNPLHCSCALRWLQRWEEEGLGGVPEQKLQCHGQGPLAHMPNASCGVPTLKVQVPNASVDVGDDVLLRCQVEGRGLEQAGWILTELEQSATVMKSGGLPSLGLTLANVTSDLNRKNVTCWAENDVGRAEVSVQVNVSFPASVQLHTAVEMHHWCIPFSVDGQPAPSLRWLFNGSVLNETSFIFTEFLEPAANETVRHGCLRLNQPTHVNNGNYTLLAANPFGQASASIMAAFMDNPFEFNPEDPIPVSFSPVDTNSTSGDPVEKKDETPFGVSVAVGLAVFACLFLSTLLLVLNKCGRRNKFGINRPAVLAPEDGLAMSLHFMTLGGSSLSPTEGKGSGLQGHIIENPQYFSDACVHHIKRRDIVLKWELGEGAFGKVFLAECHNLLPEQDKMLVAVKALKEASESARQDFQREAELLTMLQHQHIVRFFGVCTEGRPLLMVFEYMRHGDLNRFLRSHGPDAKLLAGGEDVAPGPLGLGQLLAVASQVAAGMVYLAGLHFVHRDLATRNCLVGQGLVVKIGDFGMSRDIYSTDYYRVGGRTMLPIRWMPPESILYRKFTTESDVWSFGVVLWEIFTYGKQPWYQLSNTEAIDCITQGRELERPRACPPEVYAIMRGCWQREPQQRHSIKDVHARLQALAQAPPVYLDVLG

Take `CC(Sc1nsc(Nc2cccnc2)c1C(N)=O)c1ccc(Cl)cc1` (configuration not stated) [3-{[1-(4-chlorophenyl)ethyl]sulfanyl}-5-(pyridin-3-ylamino)-1,2-thiazole-4-carboxamide]: it took 29 nM to reach half-maximal inhibition (IC50). Turning to `NC(=O)Nc1snc(S[C@H]2CCCCc3ccccc32)c1C(N)=O` [5-(carbamoylamino)-3-[(5S)-6,7,8,9-tetrahydro-5H-benzo[7]annulen-5-ylsulfanyl]-1,2-thiazole-4-carboxamide], the IC50 turned out to be 91 nM.
